# Measurements taken from US9975903B2, “Condensed heterocyclic compound” (Takeda Pharmaceutical Company Limited, priority 2014, dated 2018).
# Target: T1, Human recombinant enteropeptidase (Homo sapiens, UniProt P98073)
# T1 construct: purchased ITSI-Biosciences LLC #REN-260
# Assay: Human enteropeptidase inhibitory activity (Test Example 1)
# Format: biochemical
# Settings: 3.3 μM test compound; inhibition rate from fluorescence intensity at 2 hours after the start of the reaction
# Procedure, shortened: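 Recombinant human enteropeptidase in 50 mM Tricine pH 8.0, 0.01% Tween 20, 10 mM CaCl2, with a 5FAM/CPQ2-quenched peptide substrate (2.1 μM solution before mixing). Compound came from 1 mM DMSO stock diluted 100-fold in buffer. Fluorescence (ex 485/em 535 nm) at 2 h gave % inhibition versus no-compound and no-enzyme controls.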
# T1 sequence (P98073 whole entry): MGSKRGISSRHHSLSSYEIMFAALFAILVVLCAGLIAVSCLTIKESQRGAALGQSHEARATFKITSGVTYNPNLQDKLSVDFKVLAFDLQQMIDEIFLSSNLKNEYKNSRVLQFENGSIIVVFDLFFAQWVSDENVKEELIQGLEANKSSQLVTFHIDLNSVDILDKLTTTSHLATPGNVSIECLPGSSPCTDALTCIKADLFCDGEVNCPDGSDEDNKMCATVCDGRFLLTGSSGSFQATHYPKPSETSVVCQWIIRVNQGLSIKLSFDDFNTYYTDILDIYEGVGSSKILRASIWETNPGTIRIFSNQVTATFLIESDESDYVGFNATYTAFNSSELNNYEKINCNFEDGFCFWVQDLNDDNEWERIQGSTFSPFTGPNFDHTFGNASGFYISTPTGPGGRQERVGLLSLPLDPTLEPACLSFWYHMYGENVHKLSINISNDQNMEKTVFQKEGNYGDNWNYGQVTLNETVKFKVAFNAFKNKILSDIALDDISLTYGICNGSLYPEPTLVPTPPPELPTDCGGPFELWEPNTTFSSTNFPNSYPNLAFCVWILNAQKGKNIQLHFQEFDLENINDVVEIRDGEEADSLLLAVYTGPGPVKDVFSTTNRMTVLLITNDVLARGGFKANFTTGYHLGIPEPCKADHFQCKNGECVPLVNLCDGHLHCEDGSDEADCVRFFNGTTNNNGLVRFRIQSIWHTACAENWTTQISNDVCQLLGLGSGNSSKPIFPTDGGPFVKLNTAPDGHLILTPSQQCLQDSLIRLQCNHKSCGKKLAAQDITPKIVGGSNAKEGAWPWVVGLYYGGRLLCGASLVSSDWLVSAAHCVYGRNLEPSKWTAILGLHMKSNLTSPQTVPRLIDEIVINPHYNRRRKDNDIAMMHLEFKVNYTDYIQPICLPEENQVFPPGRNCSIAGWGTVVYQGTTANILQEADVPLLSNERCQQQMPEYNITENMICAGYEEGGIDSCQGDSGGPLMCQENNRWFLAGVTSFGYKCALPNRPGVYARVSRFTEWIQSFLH
row,3.3 μM Inhibition,Molecule
1,98%,"diethyl (4-(((10- carbamimidamido- 13-oxo-6,7,8,13- tetrahydro- dibenzo[b,f] [1,4]dioxecin-4- yl)carbonyl)amino) benzyl)phosphorate [Example 4]"

# Same assay, conditions: 3.3 μM test compound; inhibition rate from fluorescence intensity at 2 hours after the start of the reaction; read-out: 3.3 μM Inhibition
row,inhibition at 3.3 µM,Molecule
1,101%,"COc1ccc(C[C@@H](C(=O)O)N(CC(=O)O)C(=O)c2cccc3c2OCCCc2cc(NC(=N)N)ccc2C(=O)O3)cc1 [Example 94, N-((10-Carbamimidamido-13-oxo-6,7,8,13-tetrahydrodibenzo[b,f][1,4]dioxecin-4-yl)carbonyl)-N-(carboxymethyl)-O-methyl-L-tyrosine]"
2,101%,"N=C(N)Nc1ccc2c(c1)CCCOc1c(cccc1C(=O)N(CCN(CC(=O)O)CC(=O)O)CC(=O)O)OC2=O [Example 120, N-(2-(Bis(carboxymethyl)amino)ethyl)-N-((10-carbamimidamido-13-oxo-6,7,8,13-tetrahydrodibenzo[b,f][1,4]dioxecin-4-yl)carbonyl)glycine]"
3,101%,"N=C(N)Nc1ccc2c(c1)CCCOc1c(cccc1C(=O)N(CC(=O)O)[C@@H](Cc1ccc(OCCN(CC(=O)O)Cc3ccccc3)cc1)C(=O)O)OC2=O [Example 122, O-(2-(Benzyl(carboxymethyl)amino)ethyl)-N-((10-carbamimidamido-13-oxo-6,7,8,13-tetrahydrodibenzo[b,f][1,4]dioxecin-4-yl)carbonyl)-N-(carboxymethyl)-L-tyrosine]"
4,100%,"N=C(N)Nc1ccc2c(c1)CCCOc1c(ccc(CCC(=O)N(CC(=O)O)CC(=O)O)c1C(=O)O)OC2=O [Example 129, 3-(3-(bis(carboxy-methyl)amino)-3-oxopropyl)-10-carbamimidamido-13-oxo-6,7,8,13-tetrahydro-dibenzo[b,f] [1,4]dioxecine-4-carboxylic acid]"
5,99%,"COc1ccc(C[C@H](NC(=O)c2c(CCC(=O)N(CC(=O)O)CC(=O)O)ccc3c2OCCCc2cc(NC(=N)N)ccc2C(=O)O3)C(=O)O)cc1 [Example 130, N-((3-(3-(bis(carboxymethyl)amino)-3-oxopropyl)-10-carbamimidamido-13-oxo-6,7,8,13-tetrahydro-dibenzo[b,f] [1,4]dioxecin-4-yl)carbonyl)-O-methyl-L-tyrosine]"
6,100%,"N=C(N)Nc1ccc2c(c1)CCCOc1c(ccc(CCC(=O)NC(CC(=O)O)CC(=O)O)c1C(=O)O)OC2=O [Example 131, 3-((3-(10-carbamimidamido-4-carboxy-13-oxo-6,7,8,13-tetrahydro-dibenzo[b,f] [1,4]dioxecin-3-yl)propanoyl)amino) pentanedioic acid]"
7,100%,"COc1ccc(C[C@H](NC(=O)c2c(CCC(=O)NC(CC(=O)O)CC(=O)O)ccc3c2OCCCc2cc(NC(=N)N)ccc2C(=O)O3)C(=O)O)cc1 [Example 132, 3-((3-(10-carbamimidamido-4-(((1S)-1-carboxy-2-(4-methoxyphenyl)ethyl)carbamoyl)-13-oxo-6,7,8,13-tetrahydro-dibenzo[b,f] [1,4]dioxecin-3-yl)propanoyl)amino) pentanedioic acid]"
8,100%,"N=C(N)Nc1ccc2c(c1)CCCOc1c(cccc1C(=O)N(CC(=O)O)[C@@H](Cc1ccccc1)C(=O)O)OC2=O [Example 133, N-((10-carbamimidamido-13-oxo-6,7,8,13-tetrahydro-dibenzo[b,f] [1,4]dioxecin-4-yl)carbonyl)-N-(carboxymethyl)-L-phenylalanine]"
9,100%,"N=C(N)Nc1ccc2c(c1)CCCOc1c(cccc1C(=O)N(CCC(=O)O)Cc1cccc(C(=O)O)c1)OC2=O [Example 134, 3-((((10-carbamimidamido-13-oxo-6,7,8,13-tetrahydro-dibenzo[b,f] [1,4]dioxecin-4-yl)carbonyl)(2-carboxyethyl)amino)methyl)benzoic acid]"
10,100%,"C[C@@H](C(=O)O)N(Cc1cccc(C(=O)O)c1)C(=O)c1cccc2c1OCCCc1cc(NC(=N)N)ccc1C(=O)O2 [Example 135, 3-((((10-Carbamimidamido-13-oxo-6,7,8,13-tetrahydrodibenzo[b,f][1,4]dioxecin-4-yl)carbonyl) ((1S)-1-carboxyethyl)amino)methyl)benzoic acid]"
11,100%,"N=C(N)Nc1ccc2c(c1)CCCOc1c(cccc1C(=O)N(Cc1cccc(C(=O)O)c1)[C@@H](CC(=O)O)C(=O)O)OC2=O [Example 136, N-((10-Carbamimidamido-13-oxo-6,7,8,13-tetrahydrodibenzo[b,f][1,4]dioxecin-4-yl)carbonyl)-N-(3-carboxybenzyl)-L-aspartic acid]"
12,100%,N=C(N)Nc1ccc2c(c1)CCCOc1c(cccc1C(=O)N(CCOCc1ccccc1)C(CC(=O)O)C(=O)O)OC2=O (stereo not shown) [Example 137]
13,100%,"N=C(N)Nc1ccc2c(c1)CCCOc1c(cccc1C(=O)N(CCC(=O)O)[C@@H](CC(=O)O)C(=O)O)OC2=O [Example 138, N-((10-carbamimidamido-13-oxo-6,7,8,13-tetrahydro-dibenzo[b,f] [1,4]dioxecin-4-yl)carbonyl)-N-(2-carboxyethyl)-L-aspartic acid]"
14,100%,"COC(=O)CN(C(=O)c1cccc2c1OCCCc1cc(NC(=N)N)ccc1C(=O)O2)[C@@H](CC(=O)O)C(=O)O [Example 139, N-((10-carbamimidamido-13-oxo-6,7,8,13-tetrahydro-dibenzo[b,f] [1,4]dioxecin-4-yl)carbonyl)-N-(2-methoxy-2-oxoethyl)-L-aspartic acid]"
15,100%,"N=C(N)Nc1ccc2c(c1)CCCOc1c(cccc1C(=O)N(CC(=O)O)CC(=O)N(CC(=O)O)Cc1ccccc1)OC2=O [Example 140, N-((10-Carbamimidamido-13-oxo-6,7,8,13-tetrahydrodibenzo[b,f][1,4]dioxecin-4-yl)carbonyl)-N-(carboxymethyl)glycyl-N-benzylglycine]"
16,100%,"N=C(N)Nc1ccc2c(c1)CCCOc1c(cccc1C(=O)N(CC(=O)O)CC(=O)N(CC(=O)O)Cc1cccc(C(=O)O)c1)OC2=O [Example 141, N-((10-Carbamimidamido-13-oxo-6,7,8,13-tetrahydrodibenzo[b,f][1,4]dioxecin-4-yl)carbonyl)-N-(carboxymethyl)glycyl-N-(3-carboxybenzyl)glycine]"
17,98%,"N=C(N)Nc1ccc2c(c1)CCCOc1c(cccc1C(=O)N(CC(=O)O)Cc1ccc(CC(=O)O)cc1)OC2=O [Example 142, N-((10-carbamimidamido-13-oxo-6,7,8,13-tetrahydro-dibenzo[b,f] [1,4]dioxecin-4-yl)carbonyl)-N-(4-(carboxymethyl)benzyl)glycine]"
18,100%,"N=C(N)Nc1ccc2c(c1)CCCOc1c(cccc1C(=O)N(Cc1ccc(C(=O)O)cc1)[C@@H](CC(=O)O)C(=O)O)OC2=O [Example 143, N-((10-Carbamimidamido-13-oxo-6,7,8,13-tetrahydrodibenzo[b,f][1,4]dioxecin-4-yl)carbonyl)-N-(4-carboxybenzyl)-L-aspartic acid]"
19,99%,"N=C(N)Nc1ccc2c(c1)CCCOc1c(cccc1C(=O)N(Cc1cccc(C(=O)O)c1)C(CC(=O)O)CC(=O)O)OC2=O [Example 144, 3-(((10-Carbamimidamido-13-oxo-6,7,8,13-tetrahydrodibenzo[b,f][1,4]dioxecin-4-yl)carbonyl) (3-carboxybenzyl)amino)pentanedioic acid]"
20,102%,"N=C(N)Nc1ccc2c(c1)CCCOc1c(cccc1C(=O)N(CC(=O)O)Cc1cc(C(=O)O)cc(C(=O)O)c1)OC2=O [Example 146, 5-((((10-carbamimidamido-13-oxo-6,7,8,13-tetrahydro-dibenzo[b,f] [1,4]dioxecin-4-yl)carbonyl)-(carboxy-methyl)-amino)methyl) isophthalic acid]"
21,100%,"N=C(N)Nc1ccc2c(c1)CCCOc1c(cccc1C(=O)N(Cc1ccc(C(=O)O)cc1)C(CC(=O)O)CC(=O)O)OC2=O [Example 147, 3-(((10-carbamimidamido-13-oxo-6,7,8,13-tetrahydro-dibenzo[b,f] [1,4]dioxecin-4-yl)carbonyl)(4-carboxybenzyl)amino)penta-nedioic acid]"
22,101%,"N=C(N)Nc1ccc2c(c1)CCCOc1c(ccc(CCC(=O)O)c1C(=O)N(CC(=O)O)Cc1cccc(CN(CC(=O)O)CC(=O)O)c1)OC2=O [Example 148, 3-(4-((3-((bis(carboxymethyl)amino)methyl)-benzyl) (carboxymethyl)carbamoyl)-10-carbamimidamido-13-oxo-6,7,8,13-tetrahydro-dibenzo[b,f] [1,4]dioxecin-3-yl)propanoic acid]"
23,101%,N=C(N)Nc1ccc2c(c1)CCCOc1c(ccc(CCC(=O)O)c1C(=O)N(CCN(CC(=O)O)CC(=O)O)CC(=O)O)OC2=O [Example 149]

# Tested on: High fat diet-fed (HFD-fed) mice
# Assay: Fecal protein concentration-increasing test using HFD-fed mouse (Test Example 2-2)
# Format: in vivo
# Settings: male, 47-week old, 10 mg/kg orally, whole feces of first day of administration, average ± standard deviation, five mice
# Protocol: High fat diet-fed (HFD-fed) mice (D12079B diet, male, 47-week old) were orally administered with a 0.5% methyl cellulose suspension containing a test compound (10 mg/kg) (compound administration group, five mice per group) or a 0.5% methyl cellulose suspension (compound non-administration group (vehicle), five mice per group), and whole feces were collected on the first day of administration. Dried feces were dissolved in 0.5 N NaOH, followed by centrifugation at 12,000 rpm. The protein concentration in the supernatant was quantitatively measured (Lowry method), and the amount of protein contained in 1 g of feces was calculated as the fecal protein concentration (mg/g feces). The average and the standard deviation of each group are shown below.
row,Molecule,Fecal protein concentration (mg/g feces)
1,"COc1ccc(C[C@@H](C(=O)O)N(CC(=O)O)C(=O)c2cccc3c2OCCCc2cc(NC(=N)N)ccc2C(=O)O3)cc1 [Example 94, N-((10-Carbamimidamido-13-oxo-6,7,8,13-tetrahydrodibenzo[b,f][1,4]dioxecin-4-yl)carbonyl)-N-(carboxymethyl)-O-methyl-L-tyrosine]",201.0 ± 21.8 mg/g feces
2,"N=C(N)Nc1ccc2c(c1)CCCOc1c(cccc1C(=O)N(CCN(CC(=O)O)CC(=O)O)CC(=O)O)OC2=O [Example 120, N-(2-(Bis(carboxymethyl)amino)ethyl)-N-((10-carbamimidamido-13-oxo-6,7,8,13-tetrahydrodibenzo[b,f][1,4]dioxecin-4-yl)carbonyl)glycine]",194.6 ± 48.1 mg/g feces
3,"N=C(N)Nc1ccc2c(c1)CCCOc1c(cccc1C(=O)N(CC(=O)O)[C@@H](Cc1ccc(OCCN(CC(=O)O)Cc3ccccc3)cc1)C(=O)O)OC2=O [Example 122, O-(2-(Benzyl(carboxymethyl)amino)ethyl)-N-((10-carbamimidamido-13-oxo-6,7,8,13-tetrahydrodibenzo[b,f][1,4]dioxecin-4-yl)carbonyl)-N-(carboxymethyl)-L-tyrosine]",165.4 ± 16.2 mg/g feces
4,"N=C(N)Nc1ccc2c(c1)CCCOc1c(cccc1C(=O)N(Cc1cccc(C(=O)O)c1)[C@@H](CC(=O)O)C(=O)O)OC2=O [Example 136, N-((10-Carbamimidamido-13-oxo-6,7,8,13-tetrahydrodibenzo[b,f][1,4]dioxecin-4-yl)carbonyl)-N-(3-carboxybenzyl)-L-aspartic acid]",274.3 ± 74.6 mg/g feces
